In patent US11154060B2, “Microbiocidal oxadiazole derivatives” (SYNGENTA PARTICIPATIONS AG, priority 2016, dated 2021):

Legend:
Phakopsora pachyrhizi = Phakopsora pachyrhizi / soybean / leaf disc preventative (Asian soybean rust); assay type: in vivo; conditions: foliar, soybean leaf disks, inoculated one day after application, assessed 12-14 days after application, read-out: control of Phakopsora pachyrhizi compared to untreated control
Method: Leaf disks or leaf segments of various plant species are cut from plants grown in a greenhouse. The cut leaf disks or segments are placed in multiwell plates (24-well format) onto water agar. The leaf disks are sprayed with a test solution before (preventative) or after (curative) inoculation. Compounds to be tested are prepared as DMSO solutions (max. 10 mg/ml) which are diluted to the appropriate concentration with 0.025% Tween20 just before spraying. The inoculated leaf disks or segments are incubated under defined conditions (temperature, relative humidity, light, etc.) according to the respective test system. A single evaluation of disease level is carried out 3 to 14 days after inoculation, depending on the pathosystem. Percent disease control relative to the untreated check leaf disks or segments is then calculated. Soybean leaf disks are placed on water agar in multiwell plates (24-well format) and sprayed with the formulated test compound diluted in water. One day after application leaf discs are inoculated by spraying a spore suspension on the lower leaf surface. After an incubation period in a climate cabinet of 24-36 hours in darkness at 20° C. and 75% rh leaf disc are kept at 20° C. with 12 h light/12 h darkness and 75% rh. The activity of a compound is assessed as percent disease control compared to untreated when an appropriate level of disease damage appears in untreated check leaf disks (12-14 days after application).

[1] = system: Puccinia recondita f. sp. tritici; experiment: Puccinia recondita f. sp. tritici / wheat / leaf disc curative (brown rust); assay type: in vivo; conditions: foliar, wheat leaf segments cv. Kanzler, applied 1 day after inoculation, assessed 6-8 days after application, read-out: control of Puccinia recondita f. sp. tritici compared to untreated control
Method: Leaf disks or leaf segments of various plant species are cut from plants grown in a greenhouse. The cut leaf disks or segments are placed in multiwell plates (24-well format) onto water agar. The leaf disks are sprayed with a test solution before (preventative) or after (curative) inoculation. Compounds to be tested are prepared as DMSO solutions (max. 10 mg/ml) which are diluted to the appropriate concentration with 0.025% Tween20 just before spraying. The inoculated leaf disks or segments are incubated under defined conditions (temperature, relative humidity, light, etc.) according to the respective test system. A single evaluation of disease level is carried out 3 to 14 days after inoculation, depending on the pathosystem. Percent disease control relative to the untreated check leaf disks or segments is then calculated. Wheat leaf segments cv. Kanzler are placed on agar in multiwell plates (24-well format). The leaf segments are inoculated with a spore suspension of the fungus. Plates are stored in darkness at 19° C. and 75% rh. The formulated test compound diluted in water is applied 1 day after inoculation. The leaf segments are incubated at 19° C. and 75% rh under a light regime of 12 h light/12 h darkness in a climate cabinet and the activity of a compound is assessed as percent disease control compared to untreated when an appropriate level of disease damage appears in untreated check leaf segments (6-8 days after application).

Uromyces viciae-fabae = Uromyces viciae-fabae / field bean / leaf disc preventative (faba-bean rust); assay type: in vivo; conditions: foliar, 288 h, 100 ppm in the applied formulation, field bean leaf discs, inoculated two hours after application, 12 days after application, read-out: disease control compared to untreated control leaf discs
Method: Leaf disks or leaf segments of various plant species are cut from plants grown in a greenhouse. The cut leaf disks or segments are placed in multiwell plates (24-well format) onto water agar. The leaf disks are sprayed with a test solution before (preventative) or after (curative) inoculation. Compounds to be tested are prepared as DMSO solutions (max. 10 mg/ml) which are diluted to the appropriate concentration with 0.025% Tween20 just before spraying. The inoculated leaf disks or segments are incubated under defined conditions (temperature, relative humidity, light, etc.) according to the respective test system. A single evaluation of disease level is carried out 3 to 14 days after inoculation, depending on the pathosystem. Percent disease control relative to the untreated check leaf disks or segments is then calculated. Field bean leaf discs are placed on water agar in multiwell plates (96-well format) and 10 μl of the formulated test compound diluted in acetone and a spreader pipetted onto the leaf disc. Two hours after application leaf discs are inoculated by spraying a spore suspension on the lower leaf surface. The leaf discs are incubated in a climate cabinet at 22° C. with 18 hour day and 70% relative humidity. The activity of a compound is assessed as percent disease control compared to untreated when an appropriate level of disease damage appears in untreated check leaf disks (12 days after application).

[2] = system: Puccinia recondita f. sp. tritici; experiment: Puccinia recondita f. sp. tritici / wheat / leaf disc preventative (brown rust); assay type: in vivo; conditions: foliar, wheat leaf segments cv. Kanzler, inoculated 1 day after application, assessed 7-9 days after application, read-out: control of Puccinia recondita f. sp. tritici compared to untreated control
Method: Leaf disks or leaf segments of various plant species are cut from plants grown in a greenhouse. The cut leaf disks or segments are placed in multiwell plates (24-well format) onto water agar. The leaf disks are sprayed with a test solution before (preventative) or after (curative) inoculation. Compounds to be tested are prepared as DMSO solutions (max. 10 mg/ml) which are diluted to the appropriate concentration with 0.025% Tween20 just before spraying. The inoculated leaf disks or segments are incubated under defined conditions (temperature, relative humidity, light, etc.) according to the respective test system. A single evaluation of disease level is carried out 3 to 14 days after inoculation, depending on the pathosystem. Percent disease control relative to the untreated check leaf disks or segments is then calculated. Wheat leaf segments cv. Kanzler are placed on agar in multiwell plates (24-well format) and sprayed with the formulated test compound diluted in water. The leaf disks are inoculated with a spore suspension of the fungus 1 day after application. The inoculated leaf segments are incubated at 19° C. and 75% rh under a light regime of 12 h light/12 h darkness in a climate cabinet and the activity of a compound is assessed as percent disease control compared to untreated when an appropriate level of disease damage appears in untreated check leaf segments (7-9 days after application).

[3] = system: Glomerella lagenarium (Colletotrichum lagenarium); experiment: Glomerella lagenarium (Colletotrichum lagenarium) liquid culture / cucumber / preventative (anthracnose); assay type: cell-based; conditions: Colletotrichum orbiculare, liquid culture in PDB, 24° C., 3-4 days after application, read-out: control of Glomerella lagenarium compared to untreated control (inhibition of growth, photometric)
Method: Mycelia fragments or conidia suspensions of a fungus prepared either freshly from liquid cultures of the fungus or from cryogenic storage, are directly mixed into nutrient broth. DMSO solutions of the test compound (max. 10 mg/ml) are diluted with 0.025% Tween20 by a factor of 50 and 10 μl of this solution is pipetted into a microtiter plate (96-well format). The nutrient broth containing the fungal spores/mycelia fragments is then added to give an end concentration of the tested compound. The test plates are incubated in the dark at 24° C. and 96% relative humidity. The inhibition of fungal growth is determined photometrically after 2 to 7 days, depending on the pathosystem, and percent antifungal activity relative to the untreated check is calculated. Conidia of the fungus from cryogenic storage are directly mixed into nutrient broth (PDB potato dextrose broth). After placing a (DMSO) solution of test compound into a microtiter plate (96-well format), the nutrient broth containing the fungal spores is added. The test plates are incubated at 24° C. and the inhibition of growth is measured photometrically 3-4 days after application.

CON(C)C(=O)c1ccc(-c2noc(C(F)(F)F)n2)cc1F [Compound 1.2, 2-fluoro-N-methoxy-N-methyl-4-[5-(trifluoromethyl)-1,2,4-oxadiazol-3-yl]benzamide]
≥ 80%: pest or weed control at 200 ppm (Phakopsora pachyrhizi) | pest or weed control at 200 ppm [1] | pest or weed control at 100 ppm (Uromyces viciae-fabae) | pest or weed control at 200 ppm [2]

COC(=O)C1(N(O)C(=O)c2ccc(-c3noc(C(F)(F)F)n3)cc2F)CCN(OC)CC1 [Compound 1.5, methyl 4-[[2-fluoro-4-[5-(trifluoromethyl)-1,2,4-oxadiazol-3-yl]benzoyl]-hydroxy-amino]-1-methoxy-piperidine-4-carboxylate]
≥ 80%: pest or weed control at 200 ppm (Phakopsora pachyrhizi) | pest or weed control at 200 ppm [1] | inhibition at 20 ppm [3] | pest or weed control at 100 ppm (Uromyces viciae-fabae) | pest or weed control at 200 ppm [2]

CON(Cc1ccccc1)C(=O)c1ccc(-c2noc(C(F)(F)F)n2)cc1F [Compound 1.6, N-benzyl-2-fluoro-N-methoxy-4-[5-(trifluoromethyl)-1,2,4-oxadiazol-3-yl]benzamide]
≥ 80%: pest or weed control at 200 ppm (Phakopsora pachyrhizi) | pest or weed control at 200 ppm [1] | inhibition at 20 ppm [3] | pest or weed control at 100 ppm (Uromyces viciae-fabae) | pest or weed control at 200 ppm [2]

CON(Cc1ccco1)C(=O)c1ccc(-c2noc(C(F)(F)F)n2)cc1F [Compound 1.7, 2-fluoro-N-(2-furylmethyl)-N-methoxy-4-[5-(trifluoromethyl)-1,2,4-oxadiazol-3-yl]benzamide]
≥ 80%: pest or weed control at 200 ppm (Phakopsora pachyrhizi) | pest or weed control at 200 ppm [1] | inhibition at 20 ppm [3] | pest or weed control at 100 ppm (Uromyces viciae-fabae) | pest or weed control at 200 ppm [2]

CON(CC1CC1)C(=O)c1ccc(-c2noc(C(F)(F)F)n2)cc1F [Compound 1.8, N-(cyclopropylmethyl)-2-fluoro-N-methoxy-4-[5-(trifluoromethyl)-1,2,4-oxadiazol-3-yl]benzamide]
≥ 80%: pest or weed control at 200 ppm (Phakopsora pachyrhizi) | pest or weed control at 200 ppm [1] | inhibition at 20 ppm [3] | pest or weed control at 100 ppm (Uromyces viciae-fabae) | pest or weed control at 200 ppm [2]

C#CCN(OC)C(=O)c1ccc(-c2noc(C(F)(F)F)n2)cc1F [Compound 1.10, 2-fluoro-N-methoxy-N-prop-2-ynyl-4-[5-(trifluoromethyl)-1,2,4-oxadiazol-3-yl]benzamide]
≥ 80%: pest or weed control at 200 ppm (Phakopsora pachyrhizi) | pest or weed control at 200 ppm [1] | inhibition at 20 ppm [3] | pest or weed control at 100 ppm (Uromyces viciae-fabae) | pest or weed control at 200 ppm [2]

CON(CC(=O)NC(C)(C)C)C(=O)c1ccc(-c2noc(C(F)(F)F)n2)cc1 [Compound 2.2, N-[2-(tert-butylamino)-2-oxo-ethyl]-N-methoxy-4-[5-(trifluoromethyl)-1,2,4-oxadiazol-3-yl]benzamide]
≥ 80%: pest or weed control at 200 ppm (Phakopsora pachyrhizi) | pest or weed control at 200 ppm [1] | inhibition at 20 ppm [3] | pest or weed control at 100 ppm (Uromyces viciae-fabae) | pest or weed control at 200 ppm [2]

O=C(NO)c1ccc(-c2noc(C(F)(F)F)n2)cc1 [Compound 2.4, 4-[5-(trifluoromethyl)-1,2,4-oxadiazol-3-yl]benzenecarbohydroxamic acid]
≥ 80%: pest or weed control at 200 ppm (Phakopsora pachyrhizi) | pest or weed control at 200 ppm [1] | inhibition at 20 ppm [3] | pest or weed control at 100 ppm (Uromyces viciae-fabae) | pest or weed control at 200 ppm [2]

CON(Cc1ccccc1)C(=O)c1ccc(-c2noc(C(F)(F)F)n2)cc1 [Compound 2.5, N-benzyl-N-methoxy-4-[5-(trifluoromethyl)-1,2,4-oxadiazol-3-yl]benzamide]
≥ 80%: pest or weed control at 200 ppm (Phakopsora pachyrhizi) | pest or weed control at 200 ppm [1] | inhibition at 20 ppm [3] | pest or weed control at 100 ppm (Uromyces viciae-fabae) | pest or weed control at 200 ppm [2]

C#CCN(OC)C(=O)c1ccc(-c2noc(C(F)(F)F)n2)cc1 [Compound 2.6, N-methoxy-N-prop-2-ynyl-4-[5-(trifluoromethyl)-1,2,4-oxadiazol-3-yl]benzamide]
≥ 80%: pest or weed control at 200 ppm (Phakopsora pachyrhizi) | pest or weed control at 200 ppm [1] | inhibition at 20 ppm [3] | pest or weed control at 100 ppm (Uromyces viciae-fabae) | pest or weed control at 200 ppm [2]

CON(CC=C(Cl)Cl)C(=O)c1ccc(-c2noc(C(F)(F)F)n2)cc1 [Compound 2.7, N-(3,3-dichloroallyl)-N-methoxy-4-[5-(trifluoromethyl)-1,2,4-oxadiazol-3-yl]benzamide]
≥ 80%: pest or weed control at 200 ppm (Phakopsora pachyrhizi) | pest or weed control at 200 ppm [1] | inhibition at 20 ppm [3] | pest or weed control at 100 ppm (Uromyces viciae-fabae) | pest or weed control at 200 ppm [2]
